Laboratory results published in ChEMBL document CHEMBL5291721, “A preclinical secondary pharmacology resource illuminates target-adverse drug reaction associations of marketed drugs” (Nat Commun, 2023).

How the values were obtained:
[1] = biological target: 5-hydroxytryptamine receptor 2B (Homo sapiens, UniProt P41595)
[2] = biological target: T1, Alpha-1A adrenergic receptor (Homo sapiens, UniProt P35348); assay type: functional, cell-based
T1 sequence (P35348 whole entry): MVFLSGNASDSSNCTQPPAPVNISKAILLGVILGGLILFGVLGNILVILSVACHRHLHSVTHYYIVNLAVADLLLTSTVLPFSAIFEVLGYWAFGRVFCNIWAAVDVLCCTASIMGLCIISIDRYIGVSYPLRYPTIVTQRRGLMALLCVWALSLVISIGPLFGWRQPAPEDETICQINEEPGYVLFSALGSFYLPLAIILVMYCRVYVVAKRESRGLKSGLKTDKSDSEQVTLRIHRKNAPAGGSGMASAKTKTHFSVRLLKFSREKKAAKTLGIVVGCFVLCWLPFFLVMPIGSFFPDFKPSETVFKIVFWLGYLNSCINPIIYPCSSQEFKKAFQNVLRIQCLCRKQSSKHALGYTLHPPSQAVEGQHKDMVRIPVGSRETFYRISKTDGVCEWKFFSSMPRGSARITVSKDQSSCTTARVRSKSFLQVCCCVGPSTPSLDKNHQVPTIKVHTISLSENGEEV

[3] = biological target: T2, Retinoic acid receptor alpha (Homo sapiens, UniProt P10276); assay type: functional, cell-based
T2 sequence (P10276 whole entry): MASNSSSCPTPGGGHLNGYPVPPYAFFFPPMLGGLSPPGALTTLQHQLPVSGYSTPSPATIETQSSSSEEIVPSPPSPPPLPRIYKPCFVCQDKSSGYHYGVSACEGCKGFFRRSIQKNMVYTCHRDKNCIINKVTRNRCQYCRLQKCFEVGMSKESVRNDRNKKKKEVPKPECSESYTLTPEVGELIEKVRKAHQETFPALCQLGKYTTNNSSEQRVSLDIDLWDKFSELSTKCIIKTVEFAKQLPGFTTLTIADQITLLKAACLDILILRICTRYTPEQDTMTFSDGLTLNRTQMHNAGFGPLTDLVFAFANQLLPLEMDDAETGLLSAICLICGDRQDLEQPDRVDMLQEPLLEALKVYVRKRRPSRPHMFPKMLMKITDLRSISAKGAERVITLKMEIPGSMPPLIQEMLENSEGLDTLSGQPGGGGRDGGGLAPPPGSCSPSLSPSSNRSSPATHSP

[4] = biological target: T2, Retinoic acid receptor alpha; assay type: functional, cell-based; remark: listed apart in the source
Bile acid receptor = biological target: T3, Bile acid receptor (Homo sapiens, UniProt Q96RI1); assay type: functional
T3 sequence (Q96RI1 whole entry): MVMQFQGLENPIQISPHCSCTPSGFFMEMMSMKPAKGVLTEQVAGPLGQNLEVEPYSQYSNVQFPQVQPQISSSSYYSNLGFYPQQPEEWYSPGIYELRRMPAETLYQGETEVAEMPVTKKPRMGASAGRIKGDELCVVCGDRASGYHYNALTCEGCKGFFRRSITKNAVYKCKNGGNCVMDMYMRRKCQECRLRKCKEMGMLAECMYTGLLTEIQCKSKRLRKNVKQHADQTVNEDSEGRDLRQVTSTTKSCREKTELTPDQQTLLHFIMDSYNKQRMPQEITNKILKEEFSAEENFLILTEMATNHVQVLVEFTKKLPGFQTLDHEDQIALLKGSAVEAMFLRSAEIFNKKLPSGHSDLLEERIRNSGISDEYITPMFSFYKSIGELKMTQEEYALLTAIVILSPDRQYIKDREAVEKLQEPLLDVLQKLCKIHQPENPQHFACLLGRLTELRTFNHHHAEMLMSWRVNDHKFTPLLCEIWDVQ

[5] = biological target: T4, Oxysterols receptor LXR-alpha (Homo sapiens, UniProt Q13133); assay type: functional
T4 sequence (Q13133 whole entry): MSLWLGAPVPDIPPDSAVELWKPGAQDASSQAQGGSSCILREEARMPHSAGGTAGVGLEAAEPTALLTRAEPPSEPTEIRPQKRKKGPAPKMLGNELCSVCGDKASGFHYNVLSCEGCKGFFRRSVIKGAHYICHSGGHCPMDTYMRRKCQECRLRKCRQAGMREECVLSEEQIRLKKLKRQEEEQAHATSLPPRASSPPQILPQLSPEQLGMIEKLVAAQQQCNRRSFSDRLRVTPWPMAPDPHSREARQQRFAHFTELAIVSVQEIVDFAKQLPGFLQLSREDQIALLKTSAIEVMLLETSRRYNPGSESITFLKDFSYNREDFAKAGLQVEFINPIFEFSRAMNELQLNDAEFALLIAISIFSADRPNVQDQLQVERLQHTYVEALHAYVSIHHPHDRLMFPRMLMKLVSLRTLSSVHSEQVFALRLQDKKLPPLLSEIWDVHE

[6] = biological target: T5, Peroxisome proliferator-activated receptor alpha (Homo sapiens, UniProt Q07869); assay type: functional
T5 sequence (Q07869 whole entry): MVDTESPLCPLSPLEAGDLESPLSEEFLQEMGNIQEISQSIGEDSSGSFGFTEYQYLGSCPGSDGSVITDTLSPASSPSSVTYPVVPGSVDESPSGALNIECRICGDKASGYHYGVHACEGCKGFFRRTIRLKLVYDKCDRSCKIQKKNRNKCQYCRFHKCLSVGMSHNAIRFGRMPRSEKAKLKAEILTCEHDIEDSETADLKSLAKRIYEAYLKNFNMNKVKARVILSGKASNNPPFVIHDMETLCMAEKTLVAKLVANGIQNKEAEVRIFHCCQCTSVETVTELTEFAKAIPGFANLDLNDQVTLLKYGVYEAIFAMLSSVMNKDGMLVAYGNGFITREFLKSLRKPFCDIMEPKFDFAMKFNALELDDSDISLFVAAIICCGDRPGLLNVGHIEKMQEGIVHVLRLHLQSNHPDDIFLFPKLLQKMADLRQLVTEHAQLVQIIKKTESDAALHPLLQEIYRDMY

[7] = biological target: T4, Oxysterols receptor LXR-alpha; assay type: functional; remark: listed apart in the source
[8] = biological target: T6, Nuclear receptor subfamily 1 group I member 3 (Homo sapiens, UniProt Q14994); assay type: functional
T6 sequence (Q14994 whole entry): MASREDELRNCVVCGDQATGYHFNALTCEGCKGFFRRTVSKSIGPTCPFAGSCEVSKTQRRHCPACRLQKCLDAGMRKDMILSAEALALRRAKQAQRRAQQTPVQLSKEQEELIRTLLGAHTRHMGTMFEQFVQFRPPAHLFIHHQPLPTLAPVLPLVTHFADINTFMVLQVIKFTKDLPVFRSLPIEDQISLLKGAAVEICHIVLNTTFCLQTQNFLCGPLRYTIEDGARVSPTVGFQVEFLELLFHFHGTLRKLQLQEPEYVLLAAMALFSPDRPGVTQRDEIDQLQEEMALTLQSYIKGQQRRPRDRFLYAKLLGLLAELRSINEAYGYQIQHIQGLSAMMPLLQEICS
Note: assay procedure not described here.

Sequence of 5-hydroxytryptamine receptor 2B (P41595 whole entry): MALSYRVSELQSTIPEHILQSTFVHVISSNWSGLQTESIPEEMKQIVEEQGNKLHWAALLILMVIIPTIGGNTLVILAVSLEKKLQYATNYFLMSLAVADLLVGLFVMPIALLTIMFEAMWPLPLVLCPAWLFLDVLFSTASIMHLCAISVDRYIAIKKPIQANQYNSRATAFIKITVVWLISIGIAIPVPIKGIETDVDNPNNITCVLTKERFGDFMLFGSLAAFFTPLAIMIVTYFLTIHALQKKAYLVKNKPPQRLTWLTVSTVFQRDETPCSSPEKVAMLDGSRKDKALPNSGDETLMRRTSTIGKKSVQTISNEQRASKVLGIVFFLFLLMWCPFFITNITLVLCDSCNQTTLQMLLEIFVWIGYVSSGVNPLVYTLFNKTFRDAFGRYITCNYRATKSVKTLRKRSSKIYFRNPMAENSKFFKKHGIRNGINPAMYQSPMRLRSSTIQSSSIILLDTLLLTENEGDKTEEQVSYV

AC50 [1] [µM] | AC50 [2] [µM] | SMILES | AC50 [3] [µM] | AC50 [4] [µM] | AC50 (Bile acid receptor) [µM] | AC50 [5] [µM] | AC50 [6] [µM] | AC50 [7] [µM] | AC50 [8] [µM]
1.01 | 0.0093 | N=C(N)NC(=O)Cc1c(Cl)cccc1Cl [GUANFACINE] | – | – | – | – | – | – | –
– | – | CC(=O)N1CCN(c2ccc(OCC3COC(Cn4ccnc4)(c4ccc(Cl)cc4Cl)O3)cc2)CC1 (centres undefined) [KETOCONAZOLE] | > 30 | > 30 | 15 | > 30 | > 30 | > 10 | 5
